Assay results taken from paper PMC8371902, “Phase 1 study of M2698, a p70S6K/AKT dual inhibitor, in patients with advanced cancer” (Journal of Hematology & Oncology, 2021).
Like-named read-outs stand apart in the source and are kept apart here.

Tested on: patients with advanced metastatic cancer
Description: In this phase 1 study, dose escalation was followed by expansion cohorts of once-daily, oral M2698 in continuous 21-day cycles. Primary objectives were to determine the maximum tolerated dose (MTD), dose-limiting toxicities (DLTs), and recommended phase 2 dose (RP2D). Secondary objectives were to assess safety and tolerability, pharmacokinetics (PK, including food effect) and antitumor activity. Pharmacodynamic biomarker assessments were exploratory. Treatment was discontinued if there was disease progression, toxicity or consent withdrawal.
In Part 1, M2698 monotherapy was investigated in a dose escalation with a food effect cohort. In Part 2, M2698 was investigated as monotherapy (expansion cohort) to further characterize safety, tolerability and pharmacokinetics, and assess antitumor activity in PAM + patients without confounding markers (exploratory).
Dose escalation analysis included all patients who experienced a DLT and those who received ≥ 80% of planned M2698 doses in cycle 1 without experiencing a DLT. Safety analysis included all patients who received ≥ 1 dose of M2698. PK analysis included all patients who received ≥ 1 dose of M2698 and had measurable plasma concentrations. Dose proportionality was tested using the power model (linear regression approach on the log -transformed scale).

NC(=O)c1cccc2c(N[C@H](CN3CCC3)c3ccc(Cl)c(C(F)(F)F)c3)ncnc12 [M2698]
0: M2698-related TEAE: Pruritus generalised (240 mg n=17) | M2698-related TEAE: Rash (240 mg n=17) | M2698-related TEAE: Rash maculo-papular (240 mg n=17) | M2698-related TEAE: Skin and subcutaneous tissue disorders (240 mg n=17) | M2698-related TEAE: Transaminases increased (240 mg n=17) | M2698-related TEAE: Vision blurred (240 mg n=17) | M2698-related TEAE: White blood cell count decreased (240 mg n=17) | M2698-related TEAE: Affect lability (320 mg n=12) | M2698-related TEAE: Alanine aminotransferase increased (320 mg n=12) | M2698-related TEAE: Amylase increased (320 mg n=12) | M2698-related TEAE: Angina pectoris (320 mg n=12) | M2698-related TEAE: Blood creatine phosphokinase increased (320 mg n=12) | M2698-related TEAE: Cardiac disorders (320 mg n=12) | M2698-related TEAE: Cognitive disorder (320 mg n=12) | M2698-related TEAE: Diarrhoea haemorrhagic (320 mg n=12) | M2698-related TEAE: Dizziness (320 mg n=12) | M2698-related TEAE: Dry eye (320 mg n=12) | M2698-related TEAE: Dry mouth (320 mg n=12) | M2698-related TEAE: Dysgeusia (320 mg n=12) | M2698-related TEAE: Dysphagia (320 mg n=12) | M2698-related TEAE: Energy increased (320 mg n=12) | M2698-related TEAE: Erythema (320 mg n=12) | M2698-related TEAE: Euphoric mood (320 mg n=12) | M2698-related TEAE: Eye disorders (320 mg n=12) | M2698-related TEAE: Gamma-glutamyltransferase increased (320 mg n=12) | M2698-related TEAE: Gastrooesophageal reflux disease (320 mg n=12) | M2698-related TEAE: Headache (320 mg n=12) | M2698-related TEAE: Lipase increased (320 mg n=12) | M2698-related TEAE: Lymphopenia (320 mg n=12) | M2698-related TEAE: Nightmare (320 mg n=12) | M2698-related TEAE: Onychomadesis (320 mg n=12) | M2698-related TEAE: Posterior reversible encephalopathy syndrome (320 mg n=12) | M2698-related TEAE: Rash (320 mg n=12) | M2698-related TEAE: Rash maculo-papular (320 mg n=12) | M2698-related TEAE: Transaminases increased (320 mg n=12) | M2698-related TEAE: Vision blurred (320 mg n=12) | M2698-related TEAE: Vomiting (320 mg n=12) | M2698-related TEAE: White blood cell count decreased (320 mg n=12) | M2698-related TEAE: Abnormal dreams (380 mg n=4) | M2698-related TEAE: Affect lability (380 mg n=4) | M2698-related TEAE: Alanine aminotransferase increased (380 mg n=4) | M2698-related TEAE: Amylase increased (380 mg n=4) | M2698-related TEAE: Anaemia (380 mg n=4) | M2698-related TEAE: Angina pectoris (380 mg n=4) | M2698-related TEAE: Anxiety (380 mg n=4) | M2698-related TEAE: Aphasia (380 mg n=4) | M2698-related TEAE: Ataxia (380 mg n=4) | M2698-related TEAE: Blood and lymphatic system disorders (380 mg n=4) | M2698-related TEAE: Blood creatinine increased (380 mg n=4) | M2698-related TEAE: Cardiac disorders (380 mg n=4) | M2698-related TEAE: Cognitive disorder (380 mg n=4) | M2698-related TEAE: Constipation (380 mg n=4) | M2698-related TEAE: Decreased appetite (380 mg n=4) | M2698-related TEAE: Delusion (380 mg n=4) | M2698-related TEAE: Depression (380 mg n=4) | M2698-related TEAE: Diarrhoea (380 mg n=4) | M2698-related TEAE: Dizziness (380 mg n=4) | M2698-related TEAE: Dry eye (380 mg n=4) | M2698-related TEAE: Dry mouth (380 mg n=4) | M2698-related TEAE: Dysgeusia (380 mg n=4) | M2698-related TEAE: Dyspepsia (380 mg n=4)
3: M2698-related TEAE: Psychiatric disorders (240 mg n=17) | M2698-related TEAE: Psychiatric disorders (320 mg n=12) | M2698-related TEAE: Skin and subcutaneous tissue disorders (320 mg n=12) | M2698-related TEAE: Tremor (320 mg n=12)
1: M2698-related TEAE: Tremor (240 mg n=17) | M2698-related TEAE: Vomiting (240 mg n=17) | M2698-related TEAE: Anaemia (320 mg n=12) | M2698-related TEAE: Anxiety (320 mg n=12) | M2698-related TEAE: Aphasia (320 mg n=12) | M2698-related TEAE: Ataxia (320 mg n=12) | M2698-related TEAE: Blood and lymphatic system disorders (320 mg n=12) | M2698-related TEAE: Blood creatinine increased (320 mg n=12) | M2698-related TEAE: Decreased appetite (320 mg n=12) | M2698-related TEAE: Delusion (320 mg n=12) | M2698-related TEAE: Depression (320 mg n=12) | M2698-related TEAE: Dyspepsia (320 mg n=12) | M2698-related TEAE: Fatigue (320 mg n=12) | M2698-related TEAE: Hyperhidrosis (320 mg n=12) | M2698-related TEAE: Hypokalaemia (320 mg n=12) | M2698-related TEAE: Hypomagnesaemia (320 mg n=12) | M2698-related TEAE: Insomnia (320 mg n=12) | M2698-related TEAE: Investigations (320 mg n=12) | M2698-related TEAE: Mucosal inflammation (320 mg n=12) | M2698-related TEAE: Paranoia (320 mg n=12) | M2698-related TEAE: Photosensitivity reaction (320 mg n=12) | M2698-related TEAE: Pruritus generalised (320 mg n=12) | M2698-related TEAE: Blood creatine phosphokinase increased (380 mg n=4) | M2698-related TEAE: Diarrhoea haemorrhagic (380 mg n=4)
9: M2698-related TEAE: Subjects with at least one event (240 mg n=17) | M2698-related TEAE: Subjects with at least one event (320 mg n=12)
8: M2698-related TEAE: Gastrointestinal disorders (320 mg n=12)
4: M2698-related TEAE: Diarrhoea (320 mg n=12) | M2698-related TEAE: Nervous system disorders (320 mg n=12)
2: M2698-related TEAE: Abnormal dreams (320 mg n=12) | M2698-related TEAE: Constipation (320 mg n=12) | M2698-related TEAE: General disorders and administration site conditions (320 mg n=12) | M2698-related TEAE: Metabolism and nutrition disorders (320 mg n=12)
6: M2698-related TEAE: Nausea (320 mg n=12)
